Laboratory results from patent US10959432B2, “Microbiocidal oxadiazole derivatives” (Syngenta Participations AG, priority 2016, dated 2021).

What was measured:
Uromyces viciae-fabae = assay: Fungicidal activity against Uromyces viciae-fabae / field bean / leaf disc preventative (faba-bean rust); format: in vivo; conditions: foliar, 288 h, 100 ppm in the applied formulation, field bean leaf discs, preventative (inoculated two hours after application), assessed 12 days after application, read-out: disease control compared to untreated control leaf discs
In short: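 Field bean leaf discs on water agar treated with 10 μl compound in acetone plus spreader, then spray-inoculated on the lower surface with Uromyces viciae-fabae spores 2 h later. Incubation at 22 °C, 18 h day, 70% RH; percent disease control versus untreated scored 12 days after application, compounds at 100 ppm.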

[1] = system: Puccinia recondita f. sp. tritici; assay: Fungicidal activity against Puccinia recondita f. sp. tritici / wheat / leaf disc curative (brown rust); format: in vivo; conditions: foliar, 200 ppm in the applied formulation, wheat leaf segments cv. Kanzler, curative (applied 1 day after inoculation), assessed 6 to 8 days after application, read-out: disease control compared to untreated control leaf disks
In short: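 Wheat cv. Kanzler leaf segments on agar, spore-inoculated, held dark at 19° C./75% RH; formulated compound in water sprayed 1 day post-inoculation (curative). Incubated 19° C., 75% RH, 12 h light/12 h dark; percent disease control vs untreated scored 6 to 8 days after application.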

[2] = system: Puccinia recondita f. sp. tritici; assay: Fungicidal activity against Puccinia recondita f. sp. tritici / wheat / leaf disc preventative (brown rust); format: in vivo; conditions: foliar, 200 ppm in the applied formulation, wheat leaf segments cv. Kanzler, preventative (inoculated 1 day after application), assessed 7 to 9 days after application, read-out: disease control compared to untreated control leaf disks
In short: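 Wheat cv. Kanzler leaf segments on agar sprayed with formulated compound diluted in water, inoculated with P. recondita spores 1 day later. Incubated at 19C, 75% rh, 12 h light/12 h dark; scored 7 to 9 days after application as percent disease control versus untreated segments. Test rate 200 ppm.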

Phakopsora pachyrhizi = assay: Fungicidal activity against Phakopsora pachyrhizi / soybean / leaf disc preventative (Asian soybean rust); format: in vivo; conditions: foliar, 200 ppm in the applied formulation, soybean leaf disks, preventative (inoculated one day after application), assessed 12 to 14 days after application, read-out: disease control compared to untreated control leaf disks
In short: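 Soybean leaf discs on water agar sprayed with formulated compound diluted in water; spore suspension sprayed on lower leaf surface one day later. Incubated 24-36 h dark at 20° C, 75% rh, then 20° C, 12 h light/day, 75% rh. Percent disease control versus untreated scored 12 to 14 days after application.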

[3] = system: Glomerella laqenarium (Colletotrichum lagenarium); assay: Fungicidal activity against Glomerella lagenarium (Colletotrichum lagenarium) liquid culture / cucumber / preventative (anthracnose); format: cell-based; conditions: Colletotrichum orbiculare; 20 ppm in the applied formulation; liquid culture in PDB, 24° C., 3 to 4 days after application; read-out: disease control compared to untreated control (inhibition of growth measured photometrically)
In short: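 Cryostored conidia mixed into potato dextrose broth and added to test compound (from DMSO solution) in microtiter plates. Incubated at 24 °C; growth inhibition read photometrically 3 to 4 days after application, as percent activity versus untreated check.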

Row | SMILES | melting point [°C] | pest or weed control at 100 ppm (Uromyces viciae-fabae) [%] | pest or weed control at 200 ppm [1] [%] | pest or weed control at 200 ppm [2] [%] | pest or weed control at 200 ppm (Phakopsora pachyrhizi) [%] | inhibition at 20 ppm [3] [%]
1 | Cc1ccccc1CNC(=O)c1ccc(-c2noc(C(F)(F)F)n2)cc1 [Compound 4a.4, N-(o-tolylmethyl)-4-[5-(trifluoromethyl)-1,2,4-oxadiazol-3-yl]benzamide] | 135 to 141 | ≥ 80 | ≥ 80 | ≥ 80 | ≥ 80 | ≥ 80
2 | CC(NC(=O)c1ccc(-c2noc(C(F)(F)F)n2)cc1)c1ccccc1 (stereo not drawn) [Compound 4a.5, N-(1-phenylethyl)-4-[5-(trifluoromethyl)-1,2,4-oxadiazol-3-yl]benzamide] | 144 to 148 | ≥ 80 | ≥ 80 | ≥ 80 | ≥ 80 | ≥ 80
3 | CN(C(=O)c1ccc(-c2noc(C(F)(F)F)n2)cc1)c1ncn[nH]1 [Compound 5a.5, N-methyl-N-(1H-1,2,4-triazol-5-yl)-4-[5-(trifluoromethyl)-1,2,4-oxadiazol-3-yl]benzamide] | 125 to 128 | ≥ 80 | ≥ 80 | ≥ 80 | ≥ 80 | ≥ 80
4 | O=C(NCc1cnc(Cl)s1)c1ccc(-c2noc(C(F)(F)F)n2)cc1F [Compound 5b.14, N-[(2-chlorothiazol-5-yl)methyl]-2-fluoro-4-[5-(trifluoromethyl)-1,2,4-oxadiazol-3-yl]benzamide] | 127.8 to 130.8 | ≥ 80 | ≥ 80 | ≥ 80 | ≥ 80 | ≥ 80
5 | Cc1nc(CN(C)C(=O)c2ccc(-c3noc(C(F)(F)F)n3)cc2F)cs1 [Compound 5b.15, 2-fluoro-N-methyl-N-[(2-methylthiazol-4-yl)methyl]-4-[5-(trifluoromethyl)-1,2,4-oxadiazol-3-yl]benzamide] | 96.3 to 98.4 | ≥ 80 | ≥ 80 | ≥ 80 | ≥ 80 | ≥ 80
6 | N#CC(NC(=O)c1ccc(-c2noc(C(F)(F)F)n2)cc1F)c1cccs1 (stereo not drawn) [Compound 5b.20, N-[cyano(2-thienyl)methyl]-2-fluoro-4-[5-(trifluoromethyl)-1,2,4-oxadiazol-3-yl]benzamide] | 138.1 to 139.2 | ≥ 80 | ≥ 80 | ≥ 80 | ≥ 80 | ≥ 80

Second part, led by results:

Row | melting point [°C] | SMILES | pest or weed control at 100 ppm (Uromyces viciae-fabae) [%] | pest or weed control at 200 ppm [1] [%] | pest or weed control at 200 ppm [2] [%] | pest or weed control at 200 ppm (Phakopsora pachyrhizi) [%] | inhibition at 20 ppm [3] [%]
7 | 126.6 to 128.3 | CC(C)CNC(=O)c1ccc(-c2noc(C(F)(F)F)n2)cc1F [Compound 3b.5, 2-fluoro-N-isobutyl-4-[5-(trifluoromethyl)-1,2,4-oxadiazol-3-yl]benzamide] | ≥ 80 | ≥ 80 | ≥ 80 | ≥ 80 | ≥ 80
8 | 87.6 to 89 | COCCNC(=O)c1ccc(-c2noc(C(F)(F)F)n2)cc1F [Compound 3b.6, 2-fluoro-N-(2-methoxyethyl)-4-[5-(trifluoromethyl)-1,2,4-oxadiazol-3-yl]benzamide] | ≥ 80 | ≥ 80 | ≥ 80 | ≥ 80 | ≥ 80
9 | 69.2 to 69.7 | C#CC(C)(C)NC(=O)c1ccc(-c2noc(C(F)(F)F)n2)cc1F [Compound 3b.8, N-(1,1-dimethylprop-2-ynyl)-2-fluoro-4-[5-(trifluoromethyl)-1,2,4-oxadiazol-3-yl]benzamide] | ≥ 80 | ≥ 80 | ≥ 80 | ≥ 80 | ≥ 80
